Data reported in ChEMBL document CHEMBL1147838, “Design, synthesis, and evaluation of phenanthridine derivatives targeting the telomerase RNA/DNA heteroduplex” (Bioorg Med Chem Lett, 2007).

Experiment: Inhibition of telomerase by fluorescence based assay
Design: species or system Homo sapiens

Q: For `CC[n+]1c(-c2ccccc2)c2cc(NC(=O)CCCC(N)=O)ccc2c2ccc(N)cc21`, which IC50 is on record?
A: The IC50 was 68.2 µM.

Q: For `CC[n+]1c(-c2ccccc2)c2cc(NC(=O)CCCC(=O)O)ccc2c2ccc(NC(=O)CCCC(=O)O)cc21`, which IC50 is on record?
A: The IC50 was 63.1 µM.

Q: With `NC(=O)CCCCC[n+]1c(-c2ccccc2)c2cc(N)ccc2c2ccc(N)cc21` as the compound, how does the IC50 read?
A: The IC50 was 30.3 µM.

Q: With `CC[n+]1c(-c2ccccc2)c2cc(NC(=O)CCCC(N)=O)ccc2c2ccc(NC(=O)CCCC(N)=O)cc21` as the compound, how does the IC50 read?
A: The IC50 was over 80 µM.

Q: For `Nc1ccc2c(c1)c(-c1ccccc1)[n+](Cc1ccc(C(=O)O)cc1)c1cc(N)ccc21`, which IC50 is on record?
A: Its IC50 is 27.3 µM.

Q: For `NC(=O)c1ccc(C[n+]2c(-c3ccccc3)c3cc(N)ccc3c3ccc(N)cc32)cc1`, which IC50 is on record?
A: The IC50 was 2.9 µM.

Q: Which IC50 does the source give for `CC[n+]1c(-c2ccccc2)c2cc(N)ccc2c2ccc(NC(=O)CCCC(=O)O)cc21` here?
A: The IC50 was over 80 µM.

Q: Which IC50 does the source give for `Nc1ccc2c(c1)c(-c1ccccc1)[n+](CCCCCC(=O)O)c1cc(N)ccc21` here?
A: The IC50 was 23.3 µM.

Q: Which IC50 does the source give for `CC[n+]1c(-c2ccccc2)c2cc(N)ccc2c2ccc(NC(=O)CCCC(N)=O)cc21` here?
A: The IC50 was 5.6 µM.

Q: For `CC[n+]1c(-c2ccccc2)c2cc(NC(=O)CCCC(=O)O)ccc2c2ccc(N)cc21`, which IC50 is on record?
A: Its IC50 is over 80 µM.
